Assay results published in patent EP1359152B1, “Diazabicyclic derivatives as nicotinic acetylcholine receptor ligands” (ABBOTT LABORATORIES, priority 1999, dated 2000).
pKi: −log10 of the molar value. Counter-ions that a name gives are not always drawn.

Tested on: mice
Experiment: Mouse hot plate paradigm (analgesic effect, latency until tenth jump)
Format: in vivo
Conditions: ip, 0.5 h, minimally effective dose among doses tested, intraperitoneal, dosed 30 minutes prior to testing, hot plate 55 °C, cut-off 180 seconds, increase in tenth jump latency relative to control, read-out: (MED)
Procedure: An in vivo protocol was utilized to determine the effectiveness of nicotinic acetylcholine receptor ligands as analgesic agents in the mouse hot plate paradigm.
Separate groups of mice, (n=8/group) were utilized for each dose group. All drugs were administered by the intraperitoneal route of administration. Test drugs were dissolved in water to make a 6.2 mM stock solution. Animals were dosed with this solution (10 mL/kg body weight) for a 62 micromol/kg dose. Lower doses were administered similarly, following serial dilution of the stock solution in half-log increments. Animals were dosed 30 minutes prior to testing in the hot plate. The hotplate utilized was an automated analgesia monitor (Model #AHP16AN, Omnitech Electronics, Inc. of Columbus, Ohio). The temperature of the hot plate was maintained at 55 °C and a cut-off time of 180 seconds was utilized. Latency until the tenth jump was recorded as the dependent measure. An increase in the tenth jump latency relative to the control was considered an effect.

First: Clc1ccc(N2C[C@@H]3C[C@H]2CN3)cn1 [Example 1, (1S,4S)-2-(6-chloro-3-pyridinyl)-2,5-diazabicyclo[2,2,1]heptane 4-methylbenzenesulfonate]
Second: Clc1ccc(N2C[C@H]3C[C@@H]2CN3)cn1 [Example 15, (1R,4R)-2-(6-chloro-3-pyridinyl)-2,5-diazabicyclo[2.2.1]heptane 4-methylbenzenesulfonate]
The minimal effective dose of the first is higher: 6.2 µmol/kg for the first, 0.62 µmol/kg for the second.

Going from `Cc1cc(N2C[C@@H]3C[C@H]2CN3)nnc1Cl` [Example 4, (1S,4S)-2-(6-chloro-5-methyl-3-pyridazinyl)-2,5-diazabicyclo[2,2,1]heptane bis(4-methylbenzenesulfonate)] to `Clc1ccc(N2C[C@H]3C[C@@H]2CN3)nn1` [Example 16, (1R,4R)-2-(6-chloro-3-pyridazinyl)-2,5-diazabicyclo[2.2.1]heptane bis(4-methylbenzenesulfonate)], the minimal effective dose falls from 62 µmol/kg to 6.2 µmol/kg.

Biological target: T1, neuronal nicotinic acetylcholine receptors (Rattus norvegicus, UniProt P09483+P12390)
T1 construct: crude synaptic membrane preparations from whole rat brain; from tissue; host or cells: whole rat brain, crude synaptic membranes
T1 sequence (P09483 31-630): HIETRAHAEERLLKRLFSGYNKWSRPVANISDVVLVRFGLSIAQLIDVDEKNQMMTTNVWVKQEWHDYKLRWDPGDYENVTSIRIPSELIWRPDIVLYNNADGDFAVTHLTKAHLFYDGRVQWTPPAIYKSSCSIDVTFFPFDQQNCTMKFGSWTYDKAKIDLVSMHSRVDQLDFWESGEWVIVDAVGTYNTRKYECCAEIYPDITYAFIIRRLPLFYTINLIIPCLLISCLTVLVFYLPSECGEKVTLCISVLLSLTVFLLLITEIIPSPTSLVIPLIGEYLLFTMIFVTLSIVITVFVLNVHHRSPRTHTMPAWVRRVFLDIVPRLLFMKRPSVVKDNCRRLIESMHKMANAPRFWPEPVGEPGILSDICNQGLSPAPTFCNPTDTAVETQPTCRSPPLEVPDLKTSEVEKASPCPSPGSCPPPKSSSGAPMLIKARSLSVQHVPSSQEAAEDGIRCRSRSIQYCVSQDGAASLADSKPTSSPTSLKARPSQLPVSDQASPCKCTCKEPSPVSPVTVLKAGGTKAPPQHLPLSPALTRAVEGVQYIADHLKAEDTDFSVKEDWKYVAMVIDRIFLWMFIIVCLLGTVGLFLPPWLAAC
T1 sequence (P12390 25-500): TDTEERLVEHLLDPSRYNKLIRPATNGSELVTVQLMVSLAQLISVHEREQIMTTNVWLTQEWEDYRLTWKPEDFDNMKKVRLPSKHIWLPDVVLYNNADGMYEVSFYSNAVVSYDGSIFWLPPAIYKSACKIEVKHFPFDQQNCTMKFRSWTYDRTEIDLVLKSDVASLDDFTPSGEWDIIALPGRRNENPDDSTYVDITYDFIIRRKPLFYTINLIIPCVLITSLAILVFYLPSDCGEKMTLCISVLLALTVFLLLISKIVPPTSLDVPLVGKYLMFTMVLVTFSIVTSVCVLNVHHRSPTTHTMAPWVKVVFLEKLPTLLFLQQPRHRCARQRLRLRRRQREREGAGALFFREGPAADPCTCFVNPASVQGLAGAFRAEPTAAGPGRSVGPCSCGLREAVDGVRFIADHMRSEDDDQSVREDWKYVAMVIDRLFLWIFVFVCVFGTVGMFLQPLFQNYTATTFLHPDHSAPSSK
Experiment: [3H]-cytisine binding to neuronal nicotinic acetylcholine receptors, crude synaptic membranes from whole rat brain
Conditions: not given
Procedure: The In Vitro protocols for determination of nicotinic acetylcholine channel receptor binding potencies of ligands were determined as follows.
Washed membranes were stored at-80 °C prior to use. Frozen aliquots were slowly thawed and resuspended in 20 volumes of buffer (containing: 120 mM NaCl, 5 mM KCI, 2 mM MgCl2, 2 mM CaCl2 and 50 mM Tris-Cl, pH 7.4 @4 °C). After centrifuging at 20,000x g for 15 minutes, the pellets were resuspended in 30 volumes of buffer.
The test compounds were dissolved in water to make 10 mM stock solutions. Each solution was then diluted (1:100) with buffer (as above) and further taken through seven serial log dilutions to produce test solutions from 10^-5 to 10^-11 M.
Samples were incubated for 60 minutes at 4 °C, then rapidly filtered through Whatman GF/B filters presoaked in 0.5% polyethyleneimine using 3 x 4 mL of ice-cold buffer. The filters are counted in 4 mL of Ecolume® (ICN). Nonspecific binding was determined in the presence of 10 µM (-)-nicotine and values were expressed as a percentage of total binding. IC50 values were determined with the RS-1 (BBN) nonlinear least squares curve-fitting program and IC50 values were converted to Ki values using the Cheng and Prusoff correction (Ki=IC50/(1+[ligand]/Kd of ligand).

First: Clc1ccc(N2C[C@@H]3C[C@H]2CN3)cn1 [Example 1, (1S,4S)-2-(6-chloro-3-pyridinyl)-2,5-diazabicyclo[2,2,1]heptane 4-methylbenzenesulfonate]
Second: Clc1ccc(N2C[C@H]3C[C@@H]2CN3)cn1 [Example 15, (1R,4R)-2-(6-chloro-3-pyridinyl)-2,5-diazabicyclo[2.2.1]heptane 4-methylbenzenesulfonate]
The pKi of the first is 0.61 log units lower: 10.39 for the first, 11.00 for the second. The second binds more tightly here.

Compared with `Nc1ccc(N2C[C@@H]3C[C@H]2CN3)cn1` [Example 3, (1S,4S)-2-(6-amino-3-pyridinyl)-2,5-diazabicyclo[2.2.1]heptane trihydrochloride], `Clc1ccc(N2C[C@@H]3C[C@H]2CN3)nc1` [Example 18, (1S,4S)-2-(5-chloro-2-pyridinyl)-2,5-diazabicyclo[2.2.1]heptane dihydrochloride, reference compound] is 1.30 log units lower in pKi: 7.70 for the first, 6.40 for the second.

First: Cc1cc(N2C[C@@H]3C[C@H]2CN3)nnc1Cl [Example 4, (1S,4S)-2-(6-chloro-5-methyl-3-pyridazinyl)-2,5-diazabicyclo[2,2,1]heptane bis(4-methylbenzenesulfonate)]
Second: COC(=O)c1cc(N2C[C@@H]3C[C@H]2CN3)nnc1Cl [Example 9, (1S,4S)-2-(6-chloro-5-methoxycarbonyl-3-pyridazinyl)-2,5-diazabicyclo[2.2.1]heptane bis(4-methylbenzenesulfonate)]
The pKi of the first is higher: 8.42 for the first, less than 5.00 for the second.

Going from `Cc1cc(N2C[C@@H]3C[C@H]2CN3C)nnc1Cl` [Example 6, (1S,4S)-2-(6-chloro-5-methyl-3-pyridazinyl)-5-methyl-2,5-diazabicyclo[2.2.1]heptane bis(4-methylbenzenesulfonate)] to `CN1C[C@@H]2C[C@H]1CN2c1nnc(Cl)c2ccccc12` [Example 8, (1S,4S)-2-(4-chloro-1-phthalazinyl)-5-methyl-2,5-diazabicyclo[2.2.1]heptane bis(4-methylbenzenesulfonate)], the pKi falls from 7.66 to 5.59 (2.07 log units). The first binds more tightly here.

First: Clc1nnc(N2C[C@@H]3C[C@H]2CN3)c2ccccc12 [Example 7, (1S,4S)-2-(4-chloro-1-phthalazinyl)-2,5-diazabicyclo[2.2.1]heptane bis(4-methylbenzenesulfonate)]
Second: c1ccc2ncc(N3C[C@@H]4C[C@H]3CN4)cc2c1 [Example 53, (1S,4S)-2-(3-quinolinyl)-2,5-diazabicyclo[2.2.1]heptane acetate]
The pKi of the first is 2.05 log units lower: 5.72 for the first, 7.77 for the second. The second binds more tightly here.

`O=[N+]([O-])c1ccc(N2CC3CCC(C2)N3)cn1` [Example 10, 3-(6-nitro-3-pyrdinyl)-3,8-diazabicyclo[3.2.1]octane dihydrochloride] and `Nc1ccc(N2CC3CCC(C2)N3)cn1` [Example 11, 3-(6-amino-3-pyridinyl)-3,8-diazabicyclo[3.2.1]octane trihydrochloride] are the same in pKi: 7.43 for the first, 7.43 for the second.

Compared with `Clc1ccc(N2CC3CCC(C2)N3)cn1` [Example 12, 3-(6-chloro-3-pyridinyl)-3,8-diazabicyclo[3.2.1]octane dihydrochloride], `c1cncc(N2CC3CCC(C2)N3)c1` [Example 13, 3-(3-pyridinyl)-3,8-diazabicyclo[3.2.1]octane dihydrochloride] is 2.36 log units higher in pKi: 7.03 for the first, 9.39 for the second.

First: c1cnnc(N2CC3CCC(C2)N3)c1 [Example 14, 3-(3-pyridazinyl)-3,8-diazabicyclo[3.2.1]octane dihydrochloride]
Second: c1cnnc(N2C[C@@H]3C[C@H]2CN3)c1 [Example 29, (1S,4S)-2-(3-pyridazinyl)-2,5-diazabicyclo[2.2.1]heptane 4-methylbenzenesulfonate]
The pKi of the first is 0.53 log units higher: 7.96 for the first, 7.43 for the second.

First: c1cncc(N2C[C@@H]3C[C@H]2CN3)c1 [Example 17, (1S,4S)-2-(3-pyridinyl)-2,5-diazabicyclo[2.2.1]heptane 4-methylbenzenesulfonate]
Second: c1cncc(N2CC3CNCC2C3)c1 (stereo not drawn) [Example 59, 6-(3-pyridinyl)-3,6-diazabicyclo[3.2.1]octane]
The pKi of the first is 1.54 log units higher: 10.20 for the first, 8.66 for the second. The first binds more tightly here.

First: c1ccc(COc2cncc(N3C[C@@H]4C[C@H]3CN4)c2)cc1 [Example 21, (1S,4S)-2-[5-(benzyloxy)-3-pyridinyl]-2,5-diazabicyclo[2.2.1]heptane 4-methylbenzenesulfonate]
Second: COc1cncc(N2C[C@@H]3C[C@H]2CN3)c1 [Example 43, (1S,4S)-2-(5-methoxy-3-pyridinyl)-2,5-diazabicyclo[2.2.1]heptane bis(4-methylbenzenesulfonate)]
The pKi of the first is 0.24 log units higher: 9.48 for the first, 9.24 for the second.

Compared with `N#Cc1cncc(N2C[C@@H]3C[C@H]2CN3)c1` [Example 32, (1S,4S)-2-(5-cyano-3-pyridinyl)-2,5-diazabicyclo[2.2.1]heptane 4-methylbenzenesulfonate], `NCc1cncc(N2C[C@@H]3C[C@H]2CN3)c1` [Example 34, (1S,4S)-2-(5-aminomethyl-3-pyridinyl)-2,5-diazabicyclo[2.2.1]heptane trihydrochloride] is 1.95 log units lower in pKi: 8.80 for the first, 6.85 for the second.

Going from `Oc1cc(N2C[C@@H]3C[C@H]2CN3)cnc1Cl` [Example 45, (1S,4S)-2-(6-chloro-5-hydroxy-3-pyridinyl)-2,5-diazabicyclo[2.2.1]heptane 4-methylbenzenesulfonate] to `COc1cc(N2C[C@H]3C[C@@H]2CN3)cnc1Cl` [Example 51, (1R,4R)-2-(6-chloro-5-methoxy-3-pyridinyl)-2,5-diazabicyclo[2.2.1]heptane 4-methylbenzenesulfonate], the pKi rises from 8.80 to 10.00 (1.20 log units).

First: Clc1ccc(N2CC3CC2CCN3)cn1 (stereo not drawn) [Example 49, 6-(6-chloro-3-pyridinyl)-2,6-diazabicyclo[3.2.1]octane bis(4-methylbenzenesulfonate)]
Second: Clc1ccc(N2C3CCNCC2CC3)cn1 (stereo not drawn) [Example 56, 9-(6-chloro-3-pyridinyl)-3,9-diazabicyclo[4.2.1]nonane fumarate]
The pKi of the first is 1.11 log units lower: 8.57 for the first, 9.68 for the second. The second binds more tightly here.

Going from `c1ncc(N2C[C@@H]3C[C@H]2CN3)cn1` [Example 52, (1S,4S)-2-(5-pyrimidinyl)-2,5-diazabicyclo[2.2.1]heptane 4-methylbenzenesulfonate] to `Cc1cc(N2C[C@@H]3C[C@H]2CN3)sn1` [Example 54, (1S,4S)-2-(3-methyl-5-isothiazolyl)-2.5-diazabicyclo[2.2.1]heptane acetate], the pKi falls from 9.00 to 8.30 (0.70 log units). The first binds more tightly here.

Work on `c1cnc2cc(N3C[C@H]4C[C@@H]3CN4)sc2c1` [Example 55, (1R,4R)-2-(thieno[3,2-b]pyridin-2-yl)-2,5-diazabicyclo[2.2.1]heptane acetate] yielded a pKi of 9.08.

Same assay, conditions: [3H]-CYT 1.25 nM, 60 minutes at 4 °C, whole rat brain membranes; Ki from IC50 by Cheng and Prusoff correction; read-out: Average Ki

Compared with `O=[N+]([O-])c1ccc(N2CC3CC2CN3)cn1` [Example 28, (1S,4S)-2-(6-nitro-3-pyridinyl)-2.5-diazabicyclo[2.2.1]heptane], `NC(=O)c1cncc(N2CC3CC2CN3)c1` [Example 50, (1R,4R)-2-(5-aminocarbonyl-3-pyridinyl)-2.5-diazabicvclo[2.2.1]heptane bis(4-methylbenzenesulfonate)] is 2.12 log units higher in pKi: 6.96 for the first, 9.08 for the second. The second binds more tightly here.

With `c1cncc(N2CC3CCC2CN3)c1` (stereo not drawn) [Example 42, 2-(3-pyridinyl)-2.5-diazabicyclo[2.2.2]octane dihydrochloride] the pKi was 10.70.
